Data as given in patent US11149033B2, “Heteroaryl compound, enantiomer, diastereomer or pharmaceutically acceptable salt thereof, and antiviral composition containing same as active ingredient” (priority 2016, dated 2021).
Like-named read-outs stand apart in the source and are kept apart here.

Assays:
A/Perth/16/2009 (H3N2) = test: Antiviral activity (drug efficacy evaluation by concentration) against A/Perth/16/2009 (H3N2); type: cell-based, A type influenza virus
MDCK cells = test: Cytotoxicity (CC50) in the influenza infection assay
[1] = test system: A/California/07/2009 (H1N1); test: Antiviral activity (drug efficacy evaluation by concentration) against A/California/07/2009 (H1N1); type: cell-based, A type influenza virus
B/Florida/04/2006 = test: Antiviral activity (drug efficacy evaluation by concentration) against B/Florida/04/2006; type: cell-based, B type influenza virus
[2] = A/Perth/16/2009 (H3N2), read-out: EC50 A/Perth/16/2009 (H3N2)
[3] = read-out: CC50 A/California/07/2009 (H1N1), cytotoxicity in the A/California/07/2009 (H1N1) assay
[4] = read-out: CC50 A/Perth/16/2009 (H3N2), cytotoxicity in the A/Perth/16/2009 (H3N2) assay
[5] = read-out: CC50 B/Florida/04/2006, cytotoxicity in the B/Florida/04/2006 assay
[6] = A/California/07/2009 (H1N1), read-out: EC50 A/California/07/2009 (H1N1)
[7] = read-out: EC50 B/Florida/04/2006, B/Florida/04/2006
[8] = Influenza A virus, H3N2, read-out: EC50
[9] = CC50, third EC50/CC50 column pair (c7), beside the EC50 of c6
[10] = Influenza A virus, H1N1, read-out: EC50

`Cc1nn(Cc2nnc(SCc3ccccc3-c3ccncc3)o2)c(C)c1Br` [Compound 15, 2-((4-bromo-3,5-dimethyl-1H-pyrazol-1-yl)methyl)-5-((2-(pyridin-4-yl)benzyl)thio)-1,3,4-oxadiazole] gave an EC50 (A/Perth/16/2009 (H3N2); [2]) of 11.6 µM, a CC50 (MDCK cells; [3]) of over 50 µM and a CC50 (MDCK cells; [4]) of over 50 µM. The CC50 (MDCK cells; [5]) was over 50 µM, the EC50 [1, 6] was 8.9 µM and the EC50 (B/Florida/04/2006; [7]) was 8.18 µM.

`Cc1nn(Cc2nnc(SCc3ccccc3-c3ccncc3)o2)c(C)c1Br` [Compound 20, 2-((4-bromo-3,5-dimethyl-1H-pyrazol-1-yl)methyl)-5-((2-(pyridin-4-yl)benzyl)thio)-1,3,4-oxadiazole] showed an EC50 (A/Perth/16/2009 (H3N2); [2]) of 0.7 µM, a CC50 (MDCK cells; [3]) of 8.3 µM and a CC50 (MDCK cells; [4]) of 10.2 µM. The CC50 (MDCK cells; [5]) was 10.2 µM, the EC50 [1, 6] was 0.7 µM and the EC50 (B/Florida/04/2006; [7]) was 0.66 µM.

`Oc1cccc(Cc2nnc(/C=C/c3ccc(F)cc3Cl)o2)c1` [Compound 201, (E)-3-((5-(2-chloro-4-fluorostyryl)-1,3,4-oxadiazol-2-yl)methyl)phenol] gave an EC50 (A/Perth/16/2009 (H3N2); [8]) of 3.05 µM, a CC50 (in vitro; CC50, beside the EC50 of c2) of over 50 µM and a CC50 (in vitro; CC50, beside the EC50 of c4) of over 50 µM. The CC50 (in vitro; [9]) was over 50 µM, the EC50 [1, 10] was 3.25 µM and the melting point was 152.7 °C. For the same compound, the EC50 (B/Florida/04/2006) was 3.7 µM.

`Oc1ccccc1/C=C/c1nnc(Cc2ccc(Br)cc2)o1` [Compound 209, 2-(2-(5-(4-bromobenzyl)-1,3,4-oxadiazol-2-yl)vinyl)phenol] showed an EC50 (A/Perth/16/2009 (H3N2); [8]) of 28.6 µM, a CC50 (in vitro; CC50, beside the EC50 of c2) of over 50 µM and a CC50 (in vitro; CC50, beside the EC50 of c4) of over 50 µM. The CC50 (in vitro; [9]) was over 50 µM, the EC50 [1, 10] was 46.8 µM and the melting point was 168.3 °C. For the same compound, the EC50 (B/Florida/04/2006) was over 50 µM.
